Source: publication PMC6193035, “Novel small molecules affecting cell membrane as potential therapeutics for avian pathogenic Escherichia coli” (Scientific Reports, 2018)
Converted amounts (≈) assume the structure as drawn.

Tests used:
APEC O78 [1] = experiment: Bacterial cytological profiling by confocal microscopy; type: cell-based, Escherichia coli; conditions: 2X MBC, 2 h
Protocol: Confocal microscopy was used for bacterial cytological profiling (BCP) to identify the cellular pathways targeted by SMs as described previously. […] After incubation, treated cultures were centrifuged, washed, and resuspended in 100 µL PBS. FM4-64 (#T13320 Molecular Probes/Invitrogen) (1 µg/mL) and SYTO-9 (#S34854 Molecular Probes/Invitrogen) (5 µM) were added to the bacterial cultures and incubated for 45 mins at room temperature with shaking at 150 rpm. Cultures were then centrifuged, washed, and resuspended in PBS to 1/10th volume of the original cultures.

APEC O109 = experiment: MIC and MBC determination in M63 media; type: cell-based; conditions: Escherichia coli
APEC O35 = experiment: MIC and MBC determination in M63 media; type: cell-based; conditions: Escherichia coli
APEC O78 [2] = experiment: Crystal violet (CV) uptake assay; type: cell-based, Escherichia coli; conditions: 2X MBC, 30 mins; P < 0.05, Student's t-test
Protocol: Membrane permeability assays (crystal violet (CV) uptake and loss of 260/280 nm absorbing materials) were conducted as described previously. […] CV uptake was measured using the formula: (OD DMSO − OD SM/OD DMSO × 100). Two independent experiments in duplicates were conducted.

[3] = test system: intracellular APEC O1 in HD11 cells; experiment: Intracellular survival assay; type: cell-based, Escherichia coli
Protocol: (§1) Intracellular survival assay was conducted as described previously[28],[29] to determine the effect of cidal SMs on APEC survival in phagocytic (HD11, THP-1) and non-phagocytic (Caco-2) cells. Briefly, mid-logarithmic phase grown APEC O78, O1, and O2 were washed and adjusted to 1 × 10^7 CFU/mL in cell culture incomplete media (no FBS and antibiotics). One-hundred microlitres adjusted APEC suspension was added at multiplicity of infection (MOI) 10 to wells of 96-well cell culture plate containing cultured macrophage (HD11, THP-1) and epithelial cells (Caco-2) and incubated for 1 h and 3 h, respectively. […] The cells were then lysed with 100 µL of 0.1% Triton X-100 for 5 mins, serially diluted, and plated on LB agar plate to enumerate viable bacteria. The intracellular bacteria in SMs treated wells were compared with DMSO (1%) treated wells. Two independent experiments in duplicate wells for each concentration of SMs were conducted.

[4] = test system: intracellular APEC O1 in THP-1 cells; experiment: Intracellular survival assay; type: cell-based, Escherichia coli
Protocol: as §1

[5] = test system: intracellular APEC O2 in THP-1 cells; experiment: Intracellular survival assay; type: cell-based, Escherichia coli
Protocol: as §1

[6] = test system: intracellular APEC O78 in Caco-2 cells; experiment: Intracellular survival assay; type: cell-based, Escherichia coli
Protocol: as §1

[7] = test system: intracellular APEC O1 in Caco-2 cells; experiment: Intracellular survival assay; type: cell-based, Escherichia coli
Protocol: as §1

[8] = test system: intracellular APEC O2 in HD11 cells; experiment: Intracellular survival assay; type: cell-based, Escherichia coli
Protocol: as §1

[9] = test system: intracellular APEC O78 in HD11 cells; experiment: Intracellular survival assay; type: cell-based, Escherichia coli
Protocol: as §1

[10] = test system: intracellular APEC O78 in THP-1 cells; experiment: Intracellular survival assay; type: cell-based, Escherichia coli
Protocol: as §1

[11] = test system: intracellular APEC O2 in Caco-2 cells; experiment: Intracellular survival assay; type: cell-based, Escherichia coli
Protocol: as §1

[12] = test system: biofilm embedded APEC O78; experiment: MBEC High-throughput (HTP) assay; type: cell-based, Escherichia coli
Protocol: The effect of cidal SMs against biofilm embedded APEC was determined using MBEC High-throughput (HTP) assay (Innovotech Inc., AB, Canada)[22]. Briefly, 150 μL of 0.05 OD600 adjusted APEC O78 culture was aliquoted into each well of the MBEC device containing polystyrene pegs and incubated at 37 °C for 36 h in LB media under stationary condition. […] The plate was incubated in the dark for 18 h at 37 °C with rotation at 110 rpm. The DMSO (1%) and […] media were used as positive and negative controls, respectively. Following incubation, MIC of SMs in challenged plate was recorded. The SMs exposed pegs were then transferred to a new 96-well plate containing PBS and sonicated for 30 mins (Aquasonic ultrasonic cleaner, VWR) to disrupt the biofilm. The sonicated suspensions were ten-fold serially diluted and plated on LB agar plate. Biofilm embedded APEC bacteria were enumerated and minimum biofilm eradication concentration (MBEC) of SMs were determined as described previously. Two independent experiments were conducted.

APEC O1-63 = experiment: MIC and MBC determination in M63 media; type: cell-based; conditions: Escherichia coli; APEC O1-63, M63 media
[13] = test system: intracellular APEC O78, O2, and O1 in infected Caco-2, HD11, and THP1 cells; experiment: Intracellular survival assay, statements over all serotypes and cells; type: cell-based, Escherichia coli; conditions: Escherichia coli, 6 h, O78, O2 and O1; Caco-2, HD11, THP-1; 6 h; read-out: concentration clearing intracellular APEC
Protocol: as §1

**Q.** How did the “cytological profile (FM4-64 / SYTO-9 staining)” value (APEC O78 [1]) turn out when CC1CCCN(CCC(=O)c2ccc(Br)cc2)C1 (stereo not shown) [SM1] was run?
**A.** filamentous or short rods (spheroplasts) morphology (PG synthesis inhibitors)

**Q.** What about the MBC (APEC O109) of the same compound?
**A.** 200 µM (≈ 62 µg/mL)

**Q.** And the MIC (APEC O109)?
**A.** 200 µM (≈ 62 µg/mL)

**Q.** What about the MBC (APEC O35) of the same compound?
**A.** 200 µM (≈ 62 µg/mL)

**Q.** What about the MIC (APEC O35) of the same compound?
**A.** 200 µM (≈ 62 µg/mL)

**Q.** And the “uptake of crystal violet compared with DMSO” value (APEC O78 [2])?
**A.** increased the uptake of crystal violet

**Q.** What about the minimal effective concentration ([3]; Escherichia coli, O1, HD11, 6 h treatment, read-out: SMs intracellular APEC clearance concentration) of the same compound?
**A.** 400 µM

**Q.** And the “concentration at which the SM significantly (P < 0.01) reduced intracellular APEC (superscript of t-statistic)” value ([3]; O1, HD11, 6 h)?
**A.** a (0.5X MIC)

**Q.** What about the minimal effective concentration ([4]; Escherichia coli, O1, THP-1, 6 h treatment, read-out: SMs intracellular APEC clearance concentration) of the same compound?
**A.** 400 µM

**Q.** And the “intracellular APEC clearance concentration as multiple of MIC (superscript)” value ([4]; O1, THP-1)?
**A.** b (2X MIC)

**Q.** What about the “concentration at which the SM significantly (P < 0.01) reduced intracellular APEC (superscript of t-statistic)” value ([4]; O1, THP-1, 6 h) of the same compound?
**A.** a (0.5X MIC)

**Q.** What about the minimal effective concentration ([5]; Escherichia coli, O2, THP-1, 6 h treatment, read-out: SMs intracellular APEC clearance concentration) of the same compound?
**A.** 200 µM

**Q.** And the “concentration at which the SM significantly (P < 0.01) reduced intracellular APEC (superscript of t-statistic)” value ([5]; O2, THP-1, 6 h)?
**A.** b (1X MIC)

**Q.** What about the minimal effective concentration ([6]; Escherichia coli, O78, Caco-2, 6 h treatment, read-out: SMs intracellular APEC clearance concentration) of the same compound?
**A.** 200 µM

**Q.** And the “intracellular APEC clearance concentration as multiple of MIC (superscript)” value ([6]; O78, Caco-2)?
**A.** a (1X MIC)

**Q.** What about the “concentration at which the SM significantly (P < 0.01) reduced intracellular APEC (superscript of t-statistic)” value ([6]; O78, Caco-2, 6 h) of the same compound?
**A.** a (0.5X MIC)

**Q.** And the minimal effective concentration ([7]; Escherichia coli, O1, Caco-2, 6 h treatment, read-out: SMs intracellular APEC clearance concentration)?
**A.** > 400 µM

**Q.** And the “concentration at which the SM significantly (P < 0.01) reduced intracellular APEC (superscript of t-statistic)” value ([7]; O1, Caco-2, 6 h)?
**A.** b (1X MIC)

**Q.** And the minimal effective concentration ([8]; Escherichia coli, O2, HD11, 6 h treatment, read-out: SMs intracellular APEC clearance concentration)?
**A.** 200 µM

**Q.** And the “intracellular APEC clearance concentration as multiple of MIC (superscript)” value ([8]; O2, HD11)?
**A.** a (1X MIC)

**Q.** And the “concentration at which the SM significantly (P < 0.01) reduced intracellular APEC (superscript of t-statistic)” value ([8]; O2, HD11, 6 h)?
**A.** a (0.5X MIC)

**Q.** What about the minimal effective concentration ([9]; Escherichia coli, O78, HD11, 6 h treatment, read-out: SMs intracellular APEC clearance concentration) of the same compound?
**A.** 200 µM

**Q.** What about the “intracellular APEC clearance concentration as multiple of MIC (superscript)” value ([9]; O78, HD11) of the same compound?
**A.** a (1X MIC)

**Q.** And the “concentration at which the SM significantly (P < 0.01) reduced intracellular APEC (superscript of t-statistic)” value ([9]; O78, HD11, 6 h)?
**A.** a (0.5X MIC)

**Q.** And the minimal effective concentration ([10]; Escherichia coli, O78, THP-1, 6 h treatment, read-out: SMs intracellular APEC clearance concentration)?
**A.** 200 µM

**Q.** What about the “intracellular APEC clearance concentration as multiple of MIC (superscript)” value ([10]; O78, THP-1) of the same compound?
**A.** a (1X MIC)

**Q.** And the “concentration at which the SM significantly (P < 0.01) reduced intracellular APEC (superscript of t-statistic)” value ([10]; O78, THP-1, 6 h)?
**A.** a (0.5X MIC)

**Q.** And the minimal effective concentration ([11]; Escherichia coli, O2, Caco-2, 6 h treatment, read-out: SMs intracellular APEC clearance concentration)?
**A.** > 400 µM

**Q.** And the “concentration at which the SM significantly (P < 0.01) reduced intracellular APEC (superscript of t-statistic)” value ([11]; O2, Caco-2, 6 h)?
**A.** b (1X MIC)

**Q.** What about the “MBEC as multiple of MIC (superscript)” value ([12]; 18 h challenge in M63 media) of the same compound?
**A.** d (4X MIC)

**Q.** And the “MBEC as multiple of MIC” value ([12]; tested 0.5X to 8X MIC)?
**A.** 4 X MIC

**Q.** What about the MBC (APEC O1-63) of the same compound?
**A.** 250 µM (≈ 77.6 µg/mL)

**Q.** What about the MIC (APEC O1-63) of the same compound?
**A.** 200 µM (≈ 62 µg/mL)

**Q.** And the minimal effective concentration [13]?
**A.** ≥ 100 µM
